Results taken from ChEMBL document CHEMBL4414628, “Engineering Fluorine into Verticillins (Epipolythiodioxopiperazine Alkaloids) via Precursor-Directed Biosynthesis” (J Nat Prod, 2019).

Columns and labels:
MDA-MB-231 = assay: Antiproliferative activity against human MDA-MB-231 cells assessed as inhibition of cell growth incubated for 72 hrs by CellTiter 96 aqueous one solution assay; type: functional, cell-based; details: MDA-MB-231, 72 h
OVCAR-3 = assay: Antiproliferative activity against human OVCAR3 cells assessed as inhibition of cell growth incubated for 72 hrs by CellTiter 96 aqueous one solution assay; type: functional, cell-based; details: OVCAR-3, 72 h
MDA-MB-435 = assay: Antiproliferative activity against human MDA-MB-435 cells assessed as inhibition of cell growth incubated for 72 hrs by CellTiter 96 aqueous one solution assay; type: functional, cell-based; details: MDA-MB-435, 72 h
[1] = molecular target: Histone-lysine N-methyltransferase 2A (Homo sapiens, UniProt Q03164); assay: Inhibition of human recombinant MLL1 using [3H]S-adenosyl-methionine as substrate
Chain of Histone-lysine N-methyltransferase 2A (Q03164 1-2718 limits assumed): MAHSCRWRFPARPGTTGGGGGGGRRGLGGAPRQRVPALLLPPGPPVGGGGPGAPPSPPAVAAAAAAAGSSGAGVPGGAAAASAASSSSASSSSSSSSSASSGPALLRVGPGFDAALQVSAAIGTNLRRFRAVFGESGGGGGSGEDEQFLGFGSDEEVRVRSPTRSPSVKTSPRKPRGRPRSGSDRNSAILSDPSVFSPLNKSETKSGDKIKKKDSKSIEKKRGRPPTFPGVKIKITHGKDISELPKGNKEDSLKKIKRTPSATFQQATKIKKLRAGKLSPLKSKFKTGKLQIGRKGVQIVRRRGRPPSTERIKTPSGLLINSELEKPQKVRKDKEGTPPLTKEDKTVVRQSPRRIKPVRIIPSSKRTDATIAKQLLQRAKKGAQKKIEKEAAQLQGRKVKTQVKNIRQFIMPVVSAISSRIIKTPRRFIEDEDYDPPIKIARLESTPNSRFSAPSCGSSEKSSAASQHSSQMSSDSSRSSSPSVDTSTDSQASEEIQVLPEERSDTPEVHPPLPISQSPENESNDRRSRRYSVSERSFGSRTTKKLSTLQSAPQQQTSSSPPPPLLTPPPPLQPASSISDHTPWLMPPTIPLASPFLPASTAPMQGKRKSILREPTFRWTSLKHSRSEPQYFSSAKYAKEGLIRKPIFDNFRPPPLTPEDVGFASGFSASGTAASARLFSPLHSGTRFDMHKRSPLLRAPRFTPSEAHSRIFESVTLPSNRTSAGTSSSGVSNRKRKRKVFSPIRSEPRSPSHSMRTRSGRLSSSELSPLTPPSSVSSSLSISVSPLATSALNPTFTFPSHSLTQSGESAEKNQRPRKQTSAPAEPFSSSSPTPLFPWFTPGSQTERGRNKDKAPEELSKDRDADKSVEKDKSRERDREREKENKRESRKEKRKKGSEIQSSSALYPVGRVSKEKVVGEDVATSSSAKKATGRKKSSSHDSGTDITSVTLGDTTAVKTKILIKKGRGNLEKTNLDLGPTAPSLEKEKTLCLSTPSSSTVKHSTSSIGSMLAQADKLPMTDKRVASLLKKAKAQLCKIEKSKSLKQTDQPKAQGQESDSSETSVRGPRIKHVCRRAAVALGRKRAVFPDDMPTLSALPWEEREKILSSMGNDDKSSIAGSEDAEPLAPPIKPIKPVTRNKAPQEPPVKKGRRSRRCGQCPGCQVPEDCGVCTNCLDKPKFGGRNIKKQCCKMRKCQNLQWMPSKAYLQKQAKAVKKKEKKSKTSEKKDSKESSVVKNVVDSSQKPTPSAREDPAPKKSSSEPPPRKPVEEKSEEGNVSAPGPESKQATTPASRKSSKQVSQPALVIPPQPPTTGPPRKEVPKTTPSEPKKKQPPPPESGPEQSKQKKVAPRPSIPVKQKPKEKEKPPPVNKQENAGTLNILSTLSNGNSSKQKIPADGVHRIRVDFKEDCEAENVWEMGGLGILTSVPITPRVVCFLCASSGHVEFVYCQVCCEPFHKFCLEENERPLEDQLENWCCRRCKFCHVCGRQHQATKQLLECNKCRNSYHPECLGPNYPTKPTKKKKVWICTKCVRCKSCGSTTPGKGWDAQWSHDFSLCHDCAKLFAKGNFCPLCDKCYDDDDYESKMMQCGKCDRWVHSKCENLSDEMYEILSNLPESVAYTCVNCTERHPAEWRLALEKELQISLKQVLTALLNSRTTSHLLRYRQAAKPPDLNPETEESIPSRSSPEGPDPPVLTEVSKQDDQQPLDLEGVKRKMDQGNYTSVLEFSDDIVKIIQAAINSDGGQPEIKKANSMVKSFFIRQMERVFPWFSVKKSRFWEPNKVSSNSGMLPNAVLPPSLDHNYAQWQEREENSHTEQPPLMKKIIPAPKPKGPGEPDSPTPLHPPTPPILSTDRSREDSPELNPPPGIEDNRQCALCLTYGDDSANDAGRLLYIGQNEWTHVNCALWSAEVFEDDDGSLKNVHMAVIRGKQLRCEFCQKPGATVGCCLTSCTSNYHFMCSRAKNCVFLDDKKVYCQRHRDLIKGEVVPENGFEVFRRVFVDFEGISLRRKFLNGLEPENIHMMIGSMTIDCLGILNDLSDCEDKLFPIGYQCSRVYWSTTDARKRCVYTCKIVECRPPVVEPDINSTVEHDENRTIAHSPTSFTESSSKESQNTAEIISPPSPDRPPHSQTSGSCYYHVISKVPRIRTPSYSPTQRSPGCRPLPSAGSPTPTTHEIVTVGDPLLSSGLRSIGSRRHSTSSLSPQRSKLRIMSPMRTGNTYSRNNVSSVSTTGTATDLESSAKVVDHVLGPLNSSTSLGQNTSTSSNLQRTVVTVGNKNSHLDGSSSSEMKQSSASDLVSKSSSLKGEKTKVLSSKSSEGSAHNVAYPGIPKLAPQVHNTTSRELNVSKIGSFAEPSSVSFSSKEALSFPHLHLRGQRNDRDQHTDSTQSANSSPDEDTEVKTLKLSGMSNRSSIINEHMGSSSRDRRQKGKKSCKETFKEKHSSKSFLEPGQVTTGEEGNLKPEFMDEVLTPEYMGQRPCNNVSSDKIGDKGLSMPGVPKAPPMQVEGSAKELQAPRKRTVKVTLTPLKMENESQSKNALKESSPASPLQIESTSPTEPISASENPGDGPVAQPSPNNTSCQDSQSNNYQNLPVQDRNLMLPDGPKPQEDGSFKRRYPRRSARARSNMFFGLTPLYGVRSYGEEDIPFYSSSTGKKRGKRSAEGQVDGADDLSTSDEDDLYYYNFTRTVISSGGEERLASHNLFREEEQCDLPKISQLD
Chain of Histone-lysine N-methyltransferase 2A (Q03164 2719-3969 limits assumed): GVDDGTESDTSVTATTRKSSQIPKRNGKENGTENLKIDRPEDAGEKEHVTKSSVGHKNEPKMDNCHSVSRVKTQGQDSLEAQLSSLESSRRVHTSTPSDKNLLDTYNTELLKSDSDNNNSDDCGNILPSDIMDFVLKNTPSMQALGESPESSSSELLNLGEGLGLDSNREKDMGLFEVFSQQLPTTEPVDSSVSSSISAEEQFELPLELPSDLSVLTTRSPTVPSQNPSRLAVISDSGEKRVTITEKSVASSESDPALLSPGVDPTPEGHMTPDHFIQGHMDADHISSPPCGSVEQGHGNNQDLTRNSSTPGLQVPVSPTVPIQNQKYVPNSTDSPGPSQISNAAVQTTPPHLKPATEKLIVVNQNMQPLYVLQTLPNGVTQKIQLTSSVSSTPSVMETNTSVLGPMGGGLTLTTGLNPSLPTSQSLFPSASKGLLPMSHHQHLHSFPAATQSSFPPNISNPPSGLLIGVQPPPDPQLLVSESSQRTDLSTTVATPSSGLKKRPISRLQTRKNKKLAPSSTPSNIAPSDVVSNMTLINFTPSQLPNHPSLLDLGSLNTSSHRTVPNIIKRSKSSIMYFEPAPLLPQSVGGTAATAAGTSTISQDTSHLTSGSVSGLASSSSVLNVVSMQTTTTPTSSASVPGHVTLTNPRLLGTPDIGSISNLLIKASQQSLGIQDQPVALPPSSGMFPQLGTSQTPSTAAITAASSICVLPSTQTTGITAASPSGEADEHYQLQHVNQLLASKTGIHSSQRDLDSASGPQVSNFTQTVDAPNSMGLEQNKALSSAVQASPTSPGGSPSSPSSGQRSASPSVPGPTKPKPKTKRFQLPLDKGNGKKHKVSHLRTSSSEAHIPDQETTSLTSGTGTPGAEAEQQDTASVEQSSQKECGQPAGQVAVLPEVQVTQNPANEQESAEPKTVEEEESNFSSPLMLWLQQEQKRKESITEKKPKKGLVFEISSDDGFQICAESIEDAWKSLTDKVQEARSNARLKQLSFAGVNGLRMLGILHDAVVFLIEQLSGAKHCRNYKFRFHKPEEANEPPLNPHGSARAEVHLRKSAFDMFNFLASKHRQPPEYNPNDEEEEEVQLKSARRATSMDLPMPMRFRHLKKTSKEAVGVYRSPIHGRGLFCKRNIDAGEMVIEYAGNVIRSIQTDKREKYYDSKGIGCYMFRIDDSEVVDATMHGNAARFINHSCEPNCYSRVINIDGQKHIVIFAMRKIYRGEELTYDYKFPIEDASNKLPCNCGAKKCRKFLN

Structure (SMILES)	IC50 (MDA-MB-231)	IC50 (OVCAR-3)	IC50 (MDA-MB-435)	IC50 [1]
CC[C@@]12SS[C@]3(C(=O)N1C)[C@@H](O)[C@]1([C@@]45c6cc(F)ccc6N[C@@H]4N4C(=O)[C@]6(CC)SS[C@]4(C(=O)N6C)[C@H]5O)c4ccccc4N[C@@H]1N3C2=O	46 nM	39 nM	49 nM	–
CC[C@@]12SS[C@]3(C(=O)N1C)[C@@H](O)[C@]1([C@@]45c6cc(F)ccc6N[C@@H]4N4C(=O)[C@]6(CC)SS[C@]4(C(=O)N6C)[C@H]5O)c4cc(F)ccc4N[C@@H]1N3C2=O	840 nM	920 nM	830 nM	–
CC[C@@]12SS[C@]3(C(=O)N1C)[C@@H](O)[C@]1([C@@]45c6ccccc6N[C@@H]4N4C(=O)[C@]6(C)SS[C@]4(C(=O)N6C)[C@H]5O)c4ccccc4N[C@@H]1N3C2=O	22 nM	30 nM	30 nM	–
CN1C(=O)[C@]23SS[C@@]1(C)C(=O)N2[C@H]1Nc2ccc(F)cc2[C@@]1([C@@]12c4cc(F)ccc4N[C@@H]1N1C(=O)[C@]4(C)SS[C@]1(C(=O)N4C)[C@H]2O)[C@@H]3O	59 nM	75 nM	65 nM	–
CC[C@@]12SS[C@]3(C(=O)N1C)[C@@H](O)[C@]1([C@@]45c6cc(F)ccc6N[C@@H]4N4C(=O)[C@]6(C)SS[C@]4(C(=O)N6C)[C@H]5O)c4ccccc4N[C@@H]1N3C2=O	70 nM	100 nM	72 nM	–
CN1C(=O)[C@]23SS[C@@]1(C)C(=O)N2[C@H]1Nc2ccccc2[C@@]1([C@@]12c4ccccc4N[C@@H]1N1C(=O)[C@]4(C)SS[C@]1(C(=O)N4C)[C@H]2O)[C@@H]3O	43 nM	37 nM	37 nM	800 nM
CC[C@@]12SS[C@]3(C(=O)N1C)[C@@H](O)[C@]1([C@@]45c6ccccc6N[C@@H]4N4C(=O)[C@]6(C)SS[C@]4(C(=O)N6C)[C@H]5O)c4cc(F)ccc4N[C@@H]1N3C2=O	37 nM	37 nM	39 nM	–
CC[C@@]12SS[C@]3(C(=O)N1C)[C@@H](O)[C@]1([C@@]45c6ccccc6N[C@@H]4N4C(=O)[C@]6(CC)SS[C@]4(C(=O)N6C)[C@H]5O)c4ccccc4N[C@@H]1N3C2=O	71 nM	100 nM	88 nM	–
CC[C@@]12SS[C@]3(C(=O)N1C)[C@@H](O)[C@]1([C@@]45c6cc(F)ccc6N[C@@H]4N4C(=O)[C@]6(C)SS[C@]4(C(=O)N6C)[C@H]5O)c4cc(F)ccc4N[C@@H]1N3C2=O	110 nM	180 nM	130 nM	–
CN1C(=O)[C@]23SS[C@@]1(C)C(=O)N2[C@H]1Nc2ccccc2[C@@]1([C@@]12c4cc(F)ccc4N[C@@H]1N1C(=O)[C@]4(C)SS[C@]1(C(=O)N4C)[C@H]2O)[C@@H]3O	230 nM	180 nM	240 nM	–
CC(=O)O[C@H]1C(=O)[C@@]2(C)[C@H]([C@H](OC(=O)c3ccccc3)[C@]3(O)C[C@H](OC(=O)[C@H](O)[C@@H](NC(=O)c4ccccc4)c4ccccc4)C(C)=C1C3(C)C)[C@]1(OC(C)=O)CO[C@@H]1C[C@@H]2O [PACLITAXEL]	170 nM	5 nM	0.4 nM	–
